Each structure is given as a SMILES string.

The first experiment deals with T1, PARK7 (Homo sapiens, UniProt Q99497).
T1 sequence (Q99497 1-189): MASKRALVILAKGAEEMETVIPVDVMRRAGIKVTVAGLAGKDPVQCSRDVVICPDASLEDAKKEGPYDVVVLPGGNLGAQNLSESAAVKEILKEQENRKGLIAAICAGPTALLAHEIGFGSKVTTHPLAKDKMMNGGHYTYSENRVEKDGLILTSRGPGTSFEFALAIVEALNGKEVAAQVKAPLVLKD
Description: High-throughput screen of the crude compound library, PARK7 fluorescence polarization (FP) assay with FP reagent JYQ-107. Format: biochemical. The note with it: 1.25 µM, crude compound library, FP reagent JYQ-107. The source says: Therefore, taking JYQ-88 as a starting point, we conducted an optimization to further improve the molecule in terms of inhibitory potency, specificity, and cellular uptake. […] First, a small tailored library was designed and synthesized to investigate whether the introduction of larger, hydrophilic substituents on JYQ-88 would enhance the interaction with the PARK7 pocket. […] The second approach involved the generation of a compound library containing diverse substituents at the azidomethyl position. […] We next performed a high-throughput screen of this crude compound library using our in-house developed PARK7 fluorescence polarization (FP) assay.[15]
Consider `N#CN1CC[C@@H](C(=O)Nc2nc3c(s2)CN(C(=O)c2cnccn2)CC3)C1` [compound 468], for which the “HTS FP assay %Inhibition (1.25 µM)” value was 76.5%.

The same experiment, now with this note: 1.25 µM, crude compound library, FP reagent JYQ-107; read-out: HTS FP assay %Inhibition (1.25 µM).
What is called inhibition is the share of the control response that was lost under treatment. In the case of `N#CN1CC[C@@H](C(=O)Nc2nc3c(s2)CN(C(=O)CCc2ccccc2Br)CC3)C1` [compound 430], the inhibition at 1.25 µM stood at 87.5%. For the molecule `COc1ccc(C)cc1C(=O)N1CCc2nc(NC(=O)[C@@H]3CCN(C#N)C3)sc2C1` [compound 395], the inhibition at 1.25 µM stood at 84.8%.

For `N#CN1CC[C@@H](C(=O)Nc2nc3c(s2)CN(C(=O)c2ccc(NNC(=O)OCC4c5ccccc5-c5ccccc54)cc2)CC3)C1` [compound 422], the inhibition at 1.25 µM worked out at 78.9%. On to `N#CN1CC[C@@H](C(=O)Nc2nc3c(s2)CN(C(=O)Cc2ccncc2)CC3)C1` [compound 404], for which the inhibition at 1.25 µM was determined as 58.2%. Turning to `N#CN1CC[C@@H](C(=O)Nc2nc3c(s2)CN(C(=O)c2cnc(-c4cccnc4)s2)CC3)C1` [compound 368], the inhibition at 1.25 µM turned out to be 69.2%. Regarding `Cn1c(=O)c2c(ncn2CC(=O)N2CCc3nc(NC(=O)[C@@H]4CCN(C#N)C4)sc3C2)n(C)c1=O` [compound 405], the inhibition at 1.25 µM worked out at 67.9%. Take `CC(=O)C(=O)N1CCc2nc(NC(=O)[C@@H]3CCN(C#N)C3)sc2C1` [compound 466]: the inhibition at 1.25 µM turned out to be 58.5%. With `N#CN1CC[C@@H](C(=O)Nc2nc3c(s2)CN(C(=O)C2CCCN(c4ccc(Cl)nn4)C2)CC3)C1` (stereo partly drawn) [compound 356], the inhibition at 1.25 µM turned out to be 76.2%. For the molecule `CC(C)(C)OC(=O)NCC(=O)N1CCc2nc(NC(=O)[C@@H]3CCN(C#N)C3)sc2C1` [compound 408], the inhibition at 1.25 µM was 75.4%. On the same count and under the same terms, next, `COc1cc(CC(=O)N2CCc3nc(NC(=O)[C@@H]4CCN(C#N)C4)sc3C2)ccc1O` [compound 437]: 73.6%; `N#CN1CC[C@@H](C(=O)Nc2nc3c(s2)CN(C(=O)C2CC(=O)NC(=O)N2)CC3)C1` (stereo partly drawn) [compound 462]: 60.1%; `Cc1ccc(Br)c(C(=O)N2CCc3nc(NC(=O)[C@@H]4CCN(C#N)C4)sc3C2)c1` [compound 420]: 83.3%. The same measure, in the same setting: next, `N#CN1CC[C@@H](C(=O)Nc2nc3c(s2)CN(C(=O)c2cnccn2)CC3)C1` [compound 402]: 85.1%; `CC(C)(C)OC(=O)N1C[C@@H](O)C[C@@H]1C(=O)N1CCc2nc(NC(=O)[C@@H]3CCN(C#N)C3)sc2C1` [compound 450]: 68.1%.

Turning to `N#CN1CC[C@@H](C(=O)Nc2nc3c(s2)CN(C(=O)c2nc(N4CCOCC4)ncc2Cl)CC3)C1` [compound 376], the inhibition at 1.25 µM stood at 70.8%. As for `CC(C)(C)OC(=O)Nc1ccccc1C(=O)N1CCc2nc(NC(=O)[C@@H]3CCN(C#N)C3)sc2C1` [compound 396], the inhibition at 1.25 µM came to 65.2%.

The experiment is the same for the next values; noted with them: 1.25 µM, crude compound library; read-out: HTS FP assay %Inhibition (1.25 µM).
In the case of `Cc1cc(NS(=O)(=O)c2cccc(C(=O)N3CCc4nc(NC(=O)[C@@H]5CCN(C#N)C5)sc4C3)c2)no1` [compound 96], the inhibition at 1.25 µM was 77.9%. With `N#CN1CC[C@@H](C(=O)Nc2nc3c(s2)CN(C(=O)c2cc(-c4ccc(Cl)cc4)oc2C(F)(F)F)CC3)C1` [compound 49], the inhibition at 1.25 µM came to 70.8%.

As for `N#CN1CC[C@@H](C(=O)Nc2nc3c(s2)CN(C(=O)C2(c4ccccc4Cl)CCOCC2)CC3)C1` [compound 94], the inhibition at 1.25 µM came out at 65.7%. In the case of `N#CN1CC[C@@H](C(=O)Nc2nc3c(s2)CN(C(=O)c2cnn(Cn4cc(Cl)cn4)c2)CC3)C1` [compound 237], the inhibition at 1.25 µM stood at 80%. With `N#CN1CC[C@@H](C(=O)Nc2nc3c(s2)CN(C(=O)Cc2csc(-n4cccc4)n2)CC3)C1` [compound 99], the inhibition at 1.25 µM was 86.7%. The same measure, in the same setting: the value for `Cc1cc(C(=O)N2CCc3nc(NC(=O)[C@@H]4CCN(C#N)C4)sc3C2)c(C)n1-c1ccon1` [compound 130] was 76.2%. Regarding `N#CN1CC[C@@H](C(=O)Nc2nc3c(s2)CN(C(=O)c2csc(-c4ccncc4)n2)CC3)C1` [compound 214], the inhibition at 1.25 µM amounted to 59.5%.

For the molecule `CC(C(=O)N1CCc2nc(NC(=O)[C@@H]3CCN(C#N)C3)sc2C1)n1ccc(C2CC2)n1` (stereo partly drawn) [compound 239], the inhibition at 1.25 µM stood at 67.1%. Consider `CCn1cc(S(=O)(=O)N2CCC(C(=O)N3CCc4nc(NC(=O)[C@@H]5CCN(C#N)C5)sc4C3)CC2)cn1` [compound 38], for which the inhibition at 1.25 µM came out at 69%.

For `N#CN1CC[C@@H](C(=O)Nc2nc3c(s2)CN(C(=O)C2CC(=O)N(c4cnccn4)C2)CC3)C1` (stereo partly drawn) [compound 24], the inhibition at 1.25 µM came out at 71.4%. Still for that read-out and setting: next, `Cc1sc(-n2cnnn2)c(C(=O)N2CCc3nc(NC(=O)[C@@H]4CCN(C#N)C4)sc3C2)c1C` [compound 243]: 61.9%; `N#CN1CC[C@@H](C(=O)Nc2nc3c(s2)CN(C(=O)[C@@H]2CCCO[C@H]2c2ccccc2)CC3)C1` [compound 287]: 64.1%.

As for `N#CN1CC[C@@H](C(=O)Nc2nc3c(s2)CN(C(=O)Cc2ccc(-n4cccc4)cc2)CC3)C1` [compound 309], the inhibition at 1.25 µM is 80.2%.

As for `N#CN1CC[C@@H](C(=O)Nc2nc3c(s2)CN(C(=O)c2csc(CCc4ccccc4)n2)CC3)C1` [compound 300], the inhibition at 1.25 µM is 86.1%.

As to `N#CN1CC[C@@H](C(=O)Nc2nc3c(s2)CN(C(=O)c2ccnc(C4CC4)n2)CC3)C1` [compound 264], the inhibition at 1.25 µM stood at 67.7%. For `N#CN1CC[C@@H](C(=O)Nc2nc3c(s2)CN(C(=O)c2cncc(N4CCCC4)n2)CC3)C1` [compound 182], the inhibition at 1.25 µM was 81.9%. As to `CN1CCN(C(=O)C2CC=CCC2C(=O)N2CCc3nc(NC(=O)[C@@H]4CCN(C#N)C4)sc3C2)CC1` (stereo partly drawn) [compound 97], the inhibition at 1.25 µM is 72.8%. On to `Cc1cc(C(=O)N(C)c2ccccc2C(=O)N2CCc3nc(NC(=O)[C@@H]4CCN(C#N)C4)sc3C2)sc1C` [compound 260], for which the inhibition at 1.25 µM was 61.7%. With `CC1CCCC(N2CC(C(=O)N3CCc4nc(NC(=O)[C@@H]5CCN(C#N)C5)sc4C3)CC2=O)C1C` (stereo partly drawn) [compound 153], the inhibition at 1.25 µM turned out to be 64.4%. `N#CN1CC[C@@H](C(=O)Nc2nc3c(s2)CN(C(=O)C2(c4cccs4)CC2)CC3)C1` [compound 138]: the inhibition at 1.25 µM was determined as 81.9%. On the same count and under the same terms, next, `Cn1nc(C(=O)N2CCc3nc(NC(=O)[C@@H]4CCN(C#N)C4)sc3C2)cc1-c1cccnc1` [compound 172]: 86.7%. For the molecule `Cn1cc(S(=O)(=O)N2CCCC(C(=O)N3CCc4nc(NC(=O)[C@@H]5CCN(C#N)C5)sc4C3)C2)cn1` (stereo partly drawn) [compound 114], the inhibition at 1.25 µM amounted to 68.2%.

`N#CN1CC[C@@H](C(=O)Nc2nc3c(s2)CN(C(=O)c2ccc(=O)n(Cc4ccccc4)n2)CC3)C1` [compound 127]: the inhibition at 1.25 µM is 83.8%. Regarding `Cc1cc(C(=O)N2CCc3nc(NC(=O)[C@@H]4CCN(C#N)C4)sc3C2)c(C)n1-c1cccnc1` [compound 213], the inhibition at 1.25 µM is 67.7%. The same measure, in the same setting: next, `N#CN1CC[C@@H](C(=O)Nc2nc3c(s2)CN(C(=O)CCN(Cc2ccccc2)S(=O)(=O)c2c(Cl)cccc2Cl)CC3)C1` [compound 9]: 69.7%; `N#CN1CC[C@@H](C(=O)Nc2nc3c(s2)CN(C(=O)c2ccc(CNS(=O)(=O)c4ccc(F)c(F)c4F)cc2)CC3)C1` [compound 151]: 81.1%. Regarding `Cc1ccc(NS(=O)(=O)c2cccc(C(=O)N3CCc4nc(NC(=O)[C@@H]5CCN(C#N)C5)sc4C3)c2)cc1` [compound 31], the inhibition at 1.25 µM stood at 83.8%. Consider `N#CN1CC[C@@H](C(=O)Nc2nc3c(s2)CN(C(=O)C(c2ccccc2)n2cnnn2)CC3)C1` (stereo partly drawn) [compound 141], for which the inhibition at 1.25 µM is 59.5%. Same read-out and setting: the value for `N#CN1CC[C@@H](C(=O)Nc2nc3c(s2)CN(C(=O)c2cnn(CCN4CCCC4)c2)CC3)C1` [compound 137] was 70.1%. Still for that read-out and setting: the value for `N#CN1CC[C@@H](C(=O)Nc2nc3c(s2)CN(C(=O)c2ccc(Cn4cncn4)cc2)CC3)C1` [compound 159] was 80.2%; that for `Cc1ccc(N2CCCC(C(=O)N3CCc4nc(NC(=O)[C@@H]5CCN(C#N)C5)sc4C3)C2)nc1` (stereo partly drawn) [compound 170] was 62.7%.

Regarding `Cc1noc(C)c1S(=O)(=O)N1CCC(C(=O)N2CCc3nc(NC(=O)[C@@H]4CCN(C#N)C4)sc3C2)CC1` [compound 198], the inhibition at 1.25 µM came out at 65.2%. Consider `CN(C)S(=O)(=O)c1ccc(N2CCCCC2)c(C(=O)N2CCc3nc(NC(=O)[C@@H]4CCN(C#N)C4)sc3C2)c1` [compound 297], for which the inhibition at 1.25 µM was determined as 56.1%. Consider `N#CN1CC[C@@H](C(=O)Nc2nc3c(s2)CN(C(=O)C2(CC(=O)N4CCOCC4)CCCC2)CC3)C1` [compound 249], for which the inhibition at 1.25 µM was found to be 73.8%. Take `N#CN1CC[C@@H](C(=O)Nc2nc3c(s2)CN(C(=O)C2CCN(C(=O)c4ccccn4)CC2)CC3)C1` [compound 158]: the inhibition at 1.25 µM came to 69.2%. Same read-out and setting: the value for `COc1ccc(C(=O)N2CCc3nc(NC(=O)[C@@H]4CCN(C#N)C4)sc3C2)cc1S(=O)(=O)NCc1ccccn1` [compound 194] was 80.2%. In the case of `Cc1nc(-c2cc(C)n(CCC(=O)N3CCc4nc(NC(=O)[C@@H]5CCN(C#N)C5)sc4C3)c2C)cs1` [compound 196], the inhibition at 1.25 µM was determined as 61.7%. `N#CN1CC[C@@H](C(=O)Nc2nc3c(s2)CN(C(=O)C2(n4cnnn4)CC2)CC3)C1` [compound 34]: the inhibition at 1.25 µM was determined as 65.7%. As to `Cn1nc(-c2cccnc2)cc1C(=O)N1CCc2nc(NC(=O)[C@@H]3CCN(C#N)C3)sc2C1` [compound 184], the inhibition at 1.25 µM came to 86.9%.

Still in this experiment, the particulars now being: HTS of crude compound library, sheet "SMILES+%Inh HTS".
A word on the % Inhibition: it is the change of the read-out against control, counted positive when it falls. A low value points to a weak effect. Consider `N#CN1CC[C@@H](C(=O)Nc2nc3c(s2)CN(C(=O)c2cnccn2)CC3)C1` [compound 468], for which the “% Inhibition” value worked out at 76.5%.

These data come from article PMC11129182, “Development of Inhibitors, Probes, and PROTAC Provides a Complete Toolbox to Study PARK7 in the Living Cell” (Journal of Medicinal Chemistry, 2024).
